Laboratory results: ChEMBL document CHEMBL1933040, “The novel agent ophiobolin O induces apoptosis and cell cycle arrest of MCF-7 cells through activation of MAPK signaling pathways” (Bioorg Med Chem Lett, 2012)
The source made the active and inactive calls. The rule behind the calls is not given here.

Tests used:
MCF7 [1] = assay: Induction of apoptosis in human MCF7 cells assessed as change in Bax expression level at 17.86 uM after 12 to 48 hrs by Western blot analysis; assay type: functional, cell-based
MCF7 [2] = assay: Induction of apoptosis in human MCF7 cells assessed as change in Bax/Bcl2 ratio at 17.86 uM by Western blot analysis; assay type: functional, cell-based; conditions: TDE = time-dependent effect
MCF7 [3] = assay: Induction of apoptosis in human MCF7 cells at 17.86 uM after 48 hrs by using Annexin V-FITC and propidium iodide staining by flow cytometry in presence of JNK inhibitor SP600125; assay type: functional, cell-based
[4] = biological target: T1, Mitogen-activated protein kinase; ERK1/ERK2 (Homo sapiens) (UniProt P27361+P28482); assay: Activation of ERK1/2 phosphorylation in human MCF7 cells at 17.86 uM after 48 hrs by Western blot analysis in presence of ERK inhibitor U0126; assay type: cell-based
T1 sequence (P27361 whole entry, looked up): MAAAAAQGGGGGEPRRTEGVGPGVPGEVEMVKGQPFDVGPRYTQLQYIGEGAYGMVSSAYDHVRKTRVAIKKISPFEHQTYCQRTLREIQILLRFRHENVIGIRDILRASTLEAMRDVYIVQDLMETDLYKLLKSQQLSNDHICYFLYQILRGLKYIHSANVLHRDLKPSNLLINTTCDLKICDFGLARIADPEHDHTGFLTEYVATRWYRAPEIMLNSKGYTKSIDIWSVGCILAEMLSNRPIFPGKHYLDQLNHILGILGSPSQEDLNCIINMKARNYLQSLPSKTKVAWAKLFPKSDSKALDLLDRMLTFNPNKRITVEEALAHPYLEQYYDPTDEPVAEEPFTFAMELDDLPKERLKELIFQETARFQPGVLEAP
T1 sequence (P28482 whole entry, looked up): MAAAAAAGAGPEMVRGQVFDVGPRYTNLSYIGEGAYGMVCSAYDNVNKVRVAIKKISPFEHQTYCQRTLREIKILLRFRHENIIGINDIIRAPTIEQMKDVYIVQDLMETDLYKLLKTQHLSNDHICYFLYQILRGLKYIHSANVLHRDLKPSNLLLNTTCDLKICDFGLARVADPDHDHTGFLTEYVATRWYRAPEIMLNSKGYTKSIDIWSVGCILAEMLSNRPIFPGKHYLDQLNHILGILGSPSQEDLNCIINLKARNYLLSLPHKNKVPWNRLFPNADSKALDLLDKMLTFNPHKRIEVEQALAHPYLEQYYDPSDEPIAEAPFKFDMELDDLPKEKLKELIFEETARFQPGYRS

[5] = biological target: T2, MAP kinase p38 (Homo sapiens) (UniProt O15264+Q15759+Q16539+P53778); assay: Activation of MAPK p38 phosphorylation in human MCF7 cells at 17.86 uM after 48 hrs by Western blot analysis in presence of p38 inhibitor SB203580; assay type: cell-based
MCF7 [6] = assay: Induction of apoptosis in human MCF7 cells assessed as increase of Bcl-2 phosphorylation at Ser70 at 17.86 uM after 12 hrs by Western blot analysis in presence of JNK inhibitor SP600125; assay type: functional, cell-based
MCF7 [7] = assay: Induction of apoptosis in human MCF7 cells assessed as change in Bcl-2 protein level at 17.86 uM after 12 hrs by Western blot analysis in presence of JNK inhibitor SP600125; assay type: functional, cell-based
MCF7 [8] = assay: Effect on total ERK 1/2 protein level in human MCF7 cells at 17.86 uM after 12 to 48 hrs by Western blot analysis; assay type: functional, cell-based
MCF7 [9] = assay: Effect on total MAPK p38 protein level in human MCF7 cells at 17.86 uM after 12 to 48 hrs by Western blot analysis; assay type: functional, cell-based
MCF7 [10] = assay: Effect on total JNK protein level in human MCF7 cells at 17.86 uM after 12 to 48 hrs by Western blot analysis; assay type: functional, cell-based
MCF7 [11] = assay: Cytotoxicity against human MCF7 cells after 48 hrs by MTT assay; assay type: functional, cell-based
HUVEC = assay: Cytotoxicity against human HUVEC cells after 48 hrs by MTT assay; assay type: cell-based
MCF7 [12] = assay: Cell cycle arrest in human MCF7 cells assessed as accumulation at G0/G1 phase at 17.86 uM after 12 hrs by flow cytometry (reference value: 39.34 +/- 3.37%); assay type: functional
MCF7 [13] = assay: Cell cycle arrest in human MCF7 cells assessed as accumulation at G0/G1 phase at 17.86 uM after 24 hrs by flow cytometry (reference value: 39.34 +/- 3.37%); assay type: functional
MCF7 [14] = assay: Cell cycle arrest in human MCF7 cells assessed as accumulation at G0/G1 phase at 17.86 uM after 48 hrs by flow cytometry (reference value: 39.34 +/- 3.37%); assay type: functional
MCF7 [15] = assay: Cell cycle arrest in human MCF7 cells assessed as accumulation at G0/G1 phase at 17.86 uM by flow cytometry; assay type: functional, cell-based; conditions: TDE = time-dependent effect
MCF7 [16] = assay: Induction of apoptosis in human MCF7 cells at 17.86 uM using Annexin V-FITC and propidium iodide staining by flow cytometry; assay type: functional, cell-based; conditions: TDE = time-dependent effect
MCF7 [17] = assay: Induction of apoptosis in human MCF7 cells at 17.86 uM after 48 hrs using Annexin V-FITC and propidium iodide staining by flow cytometry (reference value: 3.71 +/- 0.63%); assay type: functional
[18] = biological target: T1, Mitogen-activated protein kinase; ERK1/ERK2 (Homo sapiens); assay: Activation of ERK1/2 phosphorylation in human MCF7 cells at 17.86 uM after 24 hrs by Western blot analysis relative to control; assay type: cell-based
[19] = Activation of JNK phosphorylation in human MCF7 cells at 17.86 uM after 24 hrs by Western blot analysis; assay type: cell-based
[20] = biological target: T2, MAP kinase p38 (Homo sapiens); assay: Activation of MAPK p38 phosphorylation in human MCF7 cells at 17.86 uM after 12 hrs by Western blot analysis; assay type: cell-based
[21] = biological target: T2, MAP kinase p38 (Homo sapiens); assay: Activation of MAPK p38 phosphorylation in human MCF7 cells at 17.86 uM after 36 to 48 hrs by Western blot analysis; assay type: cell-based
MCF7 [22] = assay: Induction of apoptosis in human MCF7 cells assessed as decrease in Bcl2 expression level at 17.86 uM after 12 to 48 hrs by Western blot analysis; assay type: functional, cell-based
MCF7 [23] = assay: Induction of apoptosis in human MCF7 cells assessed as increase in Bim expression level at 17.86 uM after 12 to 48 hrs by Western blot analysis; assay type: functional, cell-based

Compound: CO[C@H]1O[C@@]2(OC)C[C@@](C)(O)[C@H]3C[C@@]4(C)CC[C@H]([C@@H](C)/C=C\C=C(C)C)[C@@H]4C/C=C/1[C@H]32 [OPHIOBOLIN O]
- Activity (MCF7 [1]): inactive
- Activity (MCF7 [2]): tde
- Activity (MCF7 [3]): inactive
- Activity [4]: inactive
- Activity [5]: inactive
- Activity (MCF7 [6]): Active
- Activity (MCF7 [7]): Active
- Activity (MCF7 [8]): Active
- Activity (MCF7 [9]): Active
- Activity (MCF7 [10]): Active
- Activity (MCF7 [11]): Dose-dependent effect
- IC50 (MCF7 [11]; MCF7, 48 h): 17.9 µM
- Activity (HUVEC): Non-toxic
- Activity (MCF7 [12]): 44.79%
- Activity (MCF7 [13]): 60.1%
- Activity (MCF7 [14]): 78.54%
- Activity (MCF7 [15]): tde
- Activity (MCF7 [16]): tde
- Activity (MCF7 [17]): 47.18%
- Activity [18]: Active
- Activity [19]: Active
- Activity [20]: Active
- Activity [21]: Active
- Activity (MCF7 [22]): Active
- Activity (MCF7 [23]): Active
